This note sets out measurements from patent US20150148311A1, “NON-SYSTEMIC TGR5 AGONISTS” (Ardelyx, Inc., priority 2011, published 2015).

Molecules are shown by their SMILES.

In the first experiment the target is T1, human TGR5 (Homo sapiens, UniProt Q8TDU6).
T1 construct: expressed in transfected cells
T1 sequence (Q8TDU6 1-330): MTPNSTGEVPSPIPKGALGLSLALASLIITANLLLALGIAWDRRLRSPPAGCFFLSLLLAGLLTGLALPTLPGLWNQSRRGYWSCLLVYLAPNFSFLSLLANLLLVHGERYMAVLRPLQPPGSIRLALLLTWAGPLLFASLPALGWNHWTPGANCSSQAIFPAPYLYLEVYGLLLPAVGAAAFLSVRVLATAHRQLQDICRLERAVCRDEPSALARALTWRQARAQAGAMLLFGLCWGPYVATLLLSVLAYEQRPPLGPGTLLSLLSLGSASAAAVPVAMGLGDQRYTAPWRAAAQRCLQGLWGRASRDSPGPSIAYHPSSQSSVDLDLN
The experiment is described as follows: Cell-based TGR5 assay, HEK293 cells stably expressing human TGR5, cAMP by HTRF. The note with it: HEK293 cells stably expressing human TGR5, 30 min at 37 C, 0.05 nM to 10 μM, read-out: pEC50 Human TGR5 (converted). The procedure: Two primary cell based screens were performed. The first utilized HEK293 cells stably transfected to heterologously express human TGR5. The second screen used the human caecum carcinoma cell line NCI-H716 which endogenously expresses human TGR5. In both assays, cells are treated with candidate TGR5 activators and assessed for the increased intercellular levels of cAMP.
HEK293 cells were transfected with a vector that expresses a gene encoding human TGR5, and a stable cell line was isolated using drug selection following standard techniques. Cells were grown overnight at 37° C./5% CO2 prior to assay.
TGR5-mediated cAMP generation was measured using a homogeneous time resolved fluorescence (HTRF) detection method (Cisbio). Test compounds were dissolved in DMSO to a final concentration of 10 mM. Serial 3-fold dilutions of the stock solution were made in DMSO, and these solutions were diluted 100-fold into Hanks Balanced Salt Solution supplemented with 10 mM HEPES pH 7.4 and 0.5 mM isobutyl methylxanthine (IBMX). Prior to assay, culture medium was replaced with fresh medium, and test compounds diluted in HBSS/HEPES/IBMX were added to the cells and incubated at 37° C. for 30 minutes.
Following incubation with test compounds, cAMP was detected through the successive addition of cAMP labeled with the modified allophyocyanin dye d2 (cAMP-d2) and cryptate-labeled anti-cAMP in lysis buffer, and reading HTRF per the manufacturer's instructions. A standard curve was used to convert the raw HTRF data into [cAMP].
A general note: In TR-FRET formats the signal depends on donor and acceptor labels being close together.
Turning to `O=C(N1CCN(C2CC2)c2ccccc21)C1(NCc2cc(I)ccc2C(F)(F)F)CC1` [Example 164, (4-cyclopropyl-3,4-dihydroquinoxalin-1(2H)-yl)(1-(5-iodo-2-(trifluoromethyl)benzylamino)cyclopropyl)methanone], the EC50 is 126 to 1000 nM. `O=C(N1CCN(C2CC2)c2ccccc21)C1(NCc2c(Cl)ccc(Cl)c2O)CC1` [Example 168, (4-cyclopropyl-3,4-dihydroquinoxalin-1(2H)-yl)(1-((3,6-dichloro-2-hydroxybenzyl)amino)cyclopropyl)methanone]: the EC50 was 126 to 1000 nM. With `O=C([C@@H]1CSCN1Cc1c(Cl)ccc(Cl)c1O)N1CCN(C2CC2)c2ccccc21` [Example 170, (R)-(4-cyclopropyl-3,4-dihydroquinoxalin-1(2H)-yl)(3-(3,6-dichloro-2-hydroxybenzyl)thiazolidin-4-yl)methanone], the EC50 is 126 to 1000 nM. As for `CN(CCCCc1cc(Cl)c(OCC2(C(=O)N3CCN(C4CC4)c4ccccc43)CC2)cc1Cl)C[C@H](O)[C@@H](O)[C@H](O)[C@H](O)CO` [Example 171, (4-cyclopropyl-3,4-dihydroquinoxalin-1(2H)-yl)(1-((2,5-dichloro-4-(4-(methyl((2S,3R,4R,5R)-2,3,4,5,6-pentahydroxyhexyl)amino)butyl)phenoxy)methyl)-cyclopropyl)methanone], the EC50 is 126 to 1000 nM.

For the compound `CN(C[C@H](O)[C@@H](O)[C@H](O)[C@H](O)CO)C(=O)CCCCc1ccc(C(F)(F)F)c(CNC2(C(=O)N3CCN(C4CC4)c4ccccc43)CC2)c1` [Example 172, 5-(3-((1-(4-cyclopropyl-1,2,3,4-tetrahydroquinoxaline-1-carbonyl)cyclopropylamino)methyl)-4-(trifluoromethyl)phenyl)-N-methyl-N-((2S,3R,4R,5R)-2,3,4,5,6-pentahydroxyhexyl)pentanamide], the EC50 was 1260 to 50100 nM.

Regarding `O=C([C@@H]1CSCN1Cc1cc(Cl)c(CCCCCNc2nc(N(CCO)CCO)nc(N(CCO)CCO)n2)cc1Cl)N1CCN(C2CC2)c2ccccc21` [Example 173, 2-({4-[bis(2-hydroxyethyl)amino]-6-{[5-(2,5-dichloro-4-{[(4R)-4-[(4-cyclopropyl-1,2,3,4-tetrahydroquinoxalin-1-yl)carbonyl]-1,3-thiazolidin-3-yl]methyl}phenyl)pentyl]amino}-1,3,5-triazin-2-yl}(2-hydroxyethyl)amino)ethan-1-ol], the EC50 was 126 to 1000 nM.

For the compound `O=C(NC[C@@H](O)[C@H](O)[C@@H](O)[C@@H](O)CO)C(CCCc1cc(Cl)c(CN2CSC[C@H]2C(=O)N2CCN(C3CC3)c3ccccc32)cc1Cl)C(=O)NC[C@@H](O)[C@H](O)[C@@H](O)[C@@H](O)CO` [Example 174, 2-(3-(2,5-dichloro-4-(((R)-4-(4-cyclopropyl-1,2,3,4-tetrahydroquinoxaline-1-carbonyl)thiazolidin-3-yl)methyl)phenyl)propyl)-N1,N3-bis((2R,3S,4S,5S)-2,3,4,5,6-pentahydroxyhexyl)malonamide], the EC50 was 1260 to 50100 nM. On to `N=C(N)NCCCCCc1cc(Cl)c(CN2CSC[C@H]2C(=O)N2CCN(C3CC3)c3ccccc32)cc1Cl` [Example 181, (R)-(3-(4-(5-guanidinylpentyl)-2,5-dichlorobenzyl)thiazolidin-4-yl)(4-cyclopropyl-3,4-dihydroquinoxalin-1(2H)-yl)methanone], for which the EC50 is less than 100 nM.

In the case of `O=C(N1CCN(C2CC2)c2ccccc21)C1(NCc2cc(C3CC3)ccc2Cl)CC1` [Example 183, (1-(2-chloro-5-cyclopropylbenzylamino)cyclopropyl)(4-cyclopropyl-3,4-dihydroquinoxalin-1(2H)-yl)methanone], the EC50 was less than 100 nM. Consider `O=C(NCCOCCOCCOCCNC(=O)c1ccc(COc2cc(Cl)c(CN3CSC[C@H]3C(=O)N3CCN(C4CC4)c4ccccc43)cc2Cl)cc1)c1ccc(COc2cc(Cl)c(CN3CSC[C@@H]3C(=O)N3CCN(C4CC4)c4ccccc43)cc2Cl)cc1` [Example 190], for which the EC50 is 1260 to 50100 nM. With `CN(C[C@H](O)[C@@H](O)[C@H](O)[C@H](O)CO)C(=O)CCCCc1cc(Cl)c(COC2(C(=O)N3CCN(C4CC4)c4ccccc43)CC2)cc1Cl` [Example 192], the EC50 was less than 100 nM. For `CN(C[C@H](O)[C@@H](O)[C@H](O)[C@H](O)CO)C(=O)c1ccc(COc2cc(Cl)c(CN3CSC[C@H]3C(=O)N3CCN(C4CC4)c4ccccc43)cc2Cl)cc1` [Example 196], the EC50 is 126 to 1000 nM. As to `O=C(NCCCN(CCCNC(=O)[C@H](O)[C@@H](O)[C@H](O)[C@H](O)CO)C(=O)c1ccc(COc2cc(Cl)c(CN3CSC[C@H]3C(=O)N3CCN(C4CC4)c4ccccc43)cc2Cl)cc1)[C@H](O)[C@@H](O)[C@H](O)[C@H](O)CO` [Example 197], the EC50 was 1260 to 50100 nM.

For `CN(C)c1nc(NCCCCCc2cc(Cl)c(CN3CSC[C@H]3C(=O)N3CCN(C4CC4)c4ccccc43)cc2Cl)nc(NC(CO)(CO)CO)n1` [Example 200], the EC50 is 126 to 1000 nM. With `CN(C[C@H](O)[C@H](O)[C@@H](O)[C@H](O)CO)C(=O)c1ccc(CCc2cc(Cl)c(CN3CSC[C@H]3C(=O)N3CCN(C4CC4)c4ccccc43)cc2Cl)cn1` [Example 201], the EC50 is 126 to 1000 nM. Same read-out and setting: next, `O=C(NC[C@H](O)[C@@H](O)[C@H](O)[C@H](O)CO)c1ccc(CCc2cc(Cl)c(CN3CSC[C@H]3C(=O)N3CCN(C4CC4)c4ccccc43)cc2Cl)cn1` [Example 202]: 126 to 1000 nM. Consider `CN(C[C@H](O)[C@@H](O)[C@H](O)[C@H](O)CO)C(=O)c1ccc(COc2cc(Cl)c(CN3CSC[C@H]3C(=O)N3CCN(C4CC4)c4ccccc43)cc2Cl)o1` [Example 203], for which the EC50 was 126 to 1000 nM. Turning to `CN(C[C@H](O)[C@@H](O)[C@H](O)[C@H](O)CO)C(=O)c1ccc(COc2cc(Cl)c(CN3CSC[C@H]3C(=O)N3CCN(C4CC4)c4ccccc43)cc2Cl)nc1` [Example 205], the EC50 was 126 to 1000 nM. For `C[C@@H](NC(=O)[C@@H](C)NC(=O)[C@@H](C)NC(=O)c1ccc(COc2cc(Cl)c(CN3CSC[C@H]3C(=O)N3CCN(C4CC4)c4ccccc43)cc2Cl)cc1)C(=O)O` [Example 207], the EC50 was 126 to 1000 nM. Regarding `O=C(NCCCN(CCCNC(=O)[C@H](O)[C@@H](O)[C@H](O)[C@H](O)CO)C(=O)CCc1cc(Cl)c(CN2CSC[C@H]2C(=O)N2CCN(C3CC3)c3ccccc32)cc1Cl)[C@H](O)[C@@H](O)[C@H](O)[C@H](O)CO` [Example 209], the EC50 was 1260 to 50100 nM.

For `O=C(CCCCc1cc(Cl)c(CN2C[S+]([O-])C[C@H]2C(=O)N2CCN(C3CC3)c3ccccc32)cc1Cl)NC[C@H](O)[C@@H](O)[C@H](O)[C@H](O)CO` (stereo partly drawn) [Example 221], the EC50 was 126 to 1000 nM.

Regarding `O=C(O)CNC(=O)[C@H](CS)NC(=O)CC[C@H](NC(=O)CCCCc1cc(Cl)c(CN2CSC[C@H]2C(=O)N2CCN(C3CC3)c3ccccc32)cc1Cl)C(=O)O` [Example 222], the EC50 is less than 100 nM. Same read-out and setting: next, `COC(=O)c1cc(NCCCCCc2cc(Cl)c(CN3CSC[C@H]3C(=O)N3CCN(C4CC4)c4ccccc43)cc2Cl)nc(N(C)C[C@H](O)[C@@H](O)[C@H](O)[C@H](O)CO)n1` [Example 223]: 126 to 1000 nM; `CN(C[C@H](O)[C@@H](O)[C@H](O)[C@H](O)CO)C(=O)c1cc(NCCCCCc2cc(Cl)c(CN3CSC[C@H]3C(=O)N3CCN(C4CC4)c4ccccc43)cc2Cl)nc(N(C)CCO)n1` [Example 224]: 126 to 1000 nM; `CN(CCO)c1nc(NCCCCCc2cc(Cl)c(CN3CSC[C@H]3C(=O)N3CCN(C4CC4)c4ccccc43)cc2Cl)cc(C(=O)NC[C@H](O)[C@@H](O)[C@H](O)[C@H](O)CO)n1` [Example 225]: less than 100 nM. Consider `CN(C[C@H](O)[C@@H](O)[C@H](O)[C@H](O)CO)C(=O)c1cccc(OCc2cc(Cl)c(CN3CSC[C@H]3C(=O)N3CCN(C4CC4)c4ccccc43)cc2Cl)c1` [Example 230], for which the EC50 is 126 to 1000 nM. As for `CN(C[C@H](O)[C@@H](O)[C@H](O)[C@H](O)CO)C(=O)c1cnc(SCc2cc(Cl)c(CN3CSC[C@H]3C(=O)N3CCN(C4CC4)c4ccccc43)cc2Cl)n1C` [Example 231], the EC50 was 126 to 1000 nM. Turning to `O=C(O)c1cnn(Cc2cc(Cl)c(CN3CSC[C@H]3C(=O)N3CCN(C4CC4)c4ccccc43)cc2Cl)c1` [Example 232], the EC50 is 1260 to 50100 nM.

The same experiment, now with this note: pEC50 Human TGR5, HEK293 cells stably expressing human TGR5, 30 min at 37 C, 0.05 nM to 10 μM.
Consider `O=C(NCCCN(CCCNC(=O)[C@H](O)[C@@H](O)[C@H](O)[C@H](O)CO)C(=O)NCCCCOc1cc(Cl)c(CN2CSC[C@H]2C(=O)N2CCN(C3CC3)c3ccccc32)cc1Cl)[C@H](O)[C@@H](O)[C@H](O)[C@H](O)CO` [Example 195], for which the EC50 was 126 to 1000 nM. Same read-out and setting: the figure for `O=C(O)CN(C[C@H](O)[C@@H](O)[C@H](O)[C@H](O)CO)C(=O)CCCCc1cc(Cl)c(CN2CSC[C@H]2C(=O)N2CCN(C3CC3)c3ccccc32)cc1Cl` [Example 226] is 126 to 1000 nM.
